Source: PubChem BioAssay AID1338 (Columbia University Molecular Screening Center, 2008)
Activity calls are given as the source filed them.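 The calls were made as follows: active = normalized inhibition above 25%; inactive = normalized inhibition below 25%.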

Each molecule was assayed against Tyrosine-protein phosphatase non-receptor type 22 (Homo sapiens) (UniProt Q9Y2R2) (assay: PTPN22 enzyme inhibition, catalase-containing buffer – biochemical, catalase added, Infinite200, 384-well (AID 1338)). Conditions: Recombinant LYP, DiFMUP fluorescence, with catalase; at 10 µM; stronger effect = higher value.
Sequence of Tyrosine-protein phosphatase non-receptor type 22 (Homo sapiens) (Q9Y2R2 whole entry, looked up): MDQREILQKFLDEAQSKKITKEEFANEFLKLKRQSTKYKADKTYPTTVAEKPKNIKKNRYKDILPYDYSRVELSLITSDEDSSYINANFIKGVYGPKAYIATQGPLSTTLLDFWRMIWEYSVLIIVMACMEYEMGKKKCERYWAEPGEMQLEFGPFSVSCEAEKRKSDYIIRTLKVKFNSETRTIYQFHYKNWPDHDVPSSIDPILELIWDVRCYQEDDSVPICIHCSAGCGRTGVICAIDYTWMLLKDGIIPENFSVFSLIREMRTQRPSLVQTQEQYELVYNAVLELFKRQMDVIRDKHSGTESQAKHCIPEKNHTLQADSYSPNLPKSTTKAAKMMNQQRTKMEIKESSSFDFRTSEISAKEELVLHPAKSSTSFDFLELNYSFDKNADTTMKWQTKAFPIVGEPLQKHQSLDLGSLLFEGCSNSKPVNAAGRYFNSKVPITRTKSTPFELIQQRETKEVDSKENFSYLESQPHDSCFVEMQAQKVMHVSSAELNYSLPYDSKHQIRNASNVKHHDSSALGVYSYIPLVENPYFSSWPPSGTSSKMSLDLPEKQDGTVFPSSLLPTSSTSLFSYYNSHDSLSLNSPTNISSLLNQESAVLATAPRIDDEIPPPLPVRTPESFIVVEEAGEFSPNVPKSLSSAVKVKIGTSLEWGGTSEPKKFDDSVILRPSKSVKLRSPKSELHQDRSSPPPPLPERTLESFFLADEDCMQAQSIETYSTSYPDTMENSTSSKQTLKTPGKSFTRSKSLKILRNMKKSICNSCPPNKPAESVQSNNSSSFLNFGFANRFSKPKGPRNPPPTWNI

Compound | inhibition
Cc1ccc(NC(=O)CN2C(=O)S/C(=C\c3cccn3-c3cccc(C(=O)O)c3)C2=O)c(C)c1 | 48.2%
O=[N+]([O-])c1cc(/C=N\Nc2nccs2)ccc1O | 4% (inactive)
O=C(c1cccs1)c1no[n+]([O-])c1C(=O)c1cccs1 | 51.5%
Cn1nc(-c2ccc(Cl)cc2)nc2c(=O)n(C)c(=O)nc1-2 | 34.1%
COc1cc(-c2nnc(SCc3cc(=O)oc4cc(O)c(O)cc34)o2)cc(OC)c1OC | 49%
Nc1c(C(=O)Nc2nc3ccccc3s2)sc2nc(-c3cccs3)ccc12 | 32.2%
COc1cccc(OC)c1-c1nn2c(-c3cc(-c4ccccc4)n[nH]3)nnc2s1 | 54.4%

Further lines, results first:

inhibition | Compound
36.5% | O=C(O)CCCN1C(=O)/C(=C/c2ccc(-c3nc4ccccc4s3)o2)SC1=S
2.7% (inactive) | CC(C(=O)O)N1C(=O)/C(=C/C=C/c2ccco2)SC1=S (stereo unspecified)
48.9% | O=C(O)CCN1C(=O)/C(=C/c2ccc(-c3nc4ccccc4s3)o2)SC1=S
13% (inactive) | CC(C)C(C(=O)O)N1C(=O)/C(=C/C=C/c2ccco2)SC1=S (stereo unspecified)
